{"source": "patent US11298346B2", "about": "“Methods for treatment of fibrotic diseases” (Beta Cat Pharmaceuticals, Inc., priority 2017, dated 2022)", "key": {"[1]": {"system": "CTNNB1, EGR1, NRG1 and WISP1 mRNA levels", "test": "TaqMan gene expression analyses in DD180, PF180 and CT38 cells", "type": "cell-based, human", "experimental": "(§1) Tegavivint (BC-2059) powder was reconstituted it in 100% dimethyl sulfoxide (DMSO) to a 10_mM stock solution. The stock was diluted to 100 nM in serum-free media (α minimal essential medium, αMEM), and further diluted to 100 pM in serum-free αMEM immediately before the analyses were performed. Serial dilutions from 100 pM down to 0.78 pM were assessed in various assays. 0.001% DMSO in αMEM was used as the vehicle control, and αMEM alone was used as an untreated control, in a subset of analyses.\nGene expression analyses were assessed in triplicate on a Real-Time PCR ABI Prism 7500. Total RNA samples were derived from syngeneic DD and PF cells cultured from the explant tissues from one patient with Dupuytren's disease (DD180 and PF 180) and 1 patient with no history of Dupuytren's disease (CT38) as a normal allogeneic control. RNA quality was assessed on an Agilent 2100 Bioanalyzer and 2 μg of high quality total RNA was reverse transcribed into cDNA first strand using the High-Capacity cDNA Archive Kit (Applied Biosystems) in accordance with the manufacturer's instructions. TaqMan gene expression assays were used to measure CTNNB1, EGR1, NRG1 and WISP1 mRNA levels after 48 hrs of treatment in cells cultured on type-1 collagen coated 6 well trays. The ΔΔCT method was used after confirmation of parallel PCR amplification efficiencies of target and housekeeping genes PCR reactions were carried out under the following conditions: Initial denaturation at 95° C. for 5 min followed by cycles of denaturation (95° C. for 15 sec), primer annealing (60° C. for 1 min) and transcript extension ([…]) for 40 cycles."}, "DD180 cells": {"system": "DD180 cells", "test": "Fibroblast populated collagen lattice (FPCL) contraction assay", "type": "cell-based, human", "conditions": "≤25 pM", "experimental": "as §1\nFibroblast populated collagen lattice assays were performed on primary palmar fascia fibroblasts derived from the fibrotic palmar fascia of one patient with Dupuytren's disease (DD180) using the protocol described in Raykha, C., Crawford, J., Gan, B. S., Fu, P., Bach, L. A., and O'Gorman, D. B. (2013) IGF-II and IGFBP-6 regulate cellular contractility and proliferation in Dupuytren's disease. Biochimica et biophysica acta. 1832, 1511-9."}, "[2]": {"system": "bleomycin-induced pulmonary fibrosis", "test": "Bleomycin-induced pulmonary fibrosis mouse model, intravenous Tegavivint", "type": "in vivo, C57BL/6 wild-type mice", "conditions": "50 mg/kg biw tail-vein injection", "experimental": "(§2) In a pilot study, Tegavivint at 50 mg/kg was administered biw (twice a week) via tail-vein injection to C57BL/6 wild-type mice. Bleomycin was administered to the mice intratracheally on day 0 to induce pulmonary fibrosis, and Tegavivint or the vehicle (5% dextrose in water) was administered on days 6, 10, 14, 18 and 21. The purpose of this experiment was to evaluate the effect of systemically-administered Tegavivint on bleomycin-induced pulmonary fibrosis in vivo."}, "[3]": {"system": "bleomycin-induced pulmonary fibrosis", "test": "Bleomycin-induced pulmonary fibrosis mouse model, intranasal Tegavivint", "type": "in vivo, C57BL/6 wild-type mice", "conditions": "5 mg/kg biw intranasal", "experimental": "as §2, with “In another” for “In a”, “at 5” for “at 50”, “via intranasal delivery” for “via tail-vein injection”, “of topically-administered” for “of systemically-administered”"}, "[4]": {"test": "Lung concentration after nebulizing delivery of Tegavivint formulations (whole body exposure)", "type": "in vivo, bcat-Ex3 mice", "conditions": "mouse lung, individual animals, listed as BC2059", "experimental": "Tegavivint particles suspended in Poloxamer 188/sorbitol at a concentration of 25 mg/mL were used. These formulations were applied to the mice in the form of aerosols, through the method of whole body exposure. The mice were placed inside a plastic box. This box was sealed and connected by one of its sides to the outlet of the nebulizer device, and on the other side to a system of closed water. The whole procedure was carried out inside the fume hood of the animal room.\nFor the first experiment, the nebulizer kit of SATER LABS was used. This device uses the jet system. The device was primed with 5 ml of the drug, i.e. 125 mg of tegavivint (BC2059), for each group of 5 mice, and then the device was connected to the power source for nebulization. The energy was supplied by a DeVilbiss compressor model 646, which allows 5-7 pounds of pressure, and a flow of 6-8 liters per minute. For the second experiment, the device used was the Altera, ultrasonic nebulizer.\nFor the two experiments, 10 male bcat-Ex3 mice were used for each set. These mice were separated into 2 groups of 5 mice each. The first group received the drug daily, for 5 consecutive days. The second group received the drug only once (the fifth day). On day 5 all mice were sacrificed, lung harvested, and samples were stored at −30 degrees, in two labeled nylon bags, each containing the 5 samples from each group."}, "TBL1": {"molecular_target": "T1, TBL1 (Homo sapiens, UniProt O60907)", "T1 sequence (O60907 1-577)": "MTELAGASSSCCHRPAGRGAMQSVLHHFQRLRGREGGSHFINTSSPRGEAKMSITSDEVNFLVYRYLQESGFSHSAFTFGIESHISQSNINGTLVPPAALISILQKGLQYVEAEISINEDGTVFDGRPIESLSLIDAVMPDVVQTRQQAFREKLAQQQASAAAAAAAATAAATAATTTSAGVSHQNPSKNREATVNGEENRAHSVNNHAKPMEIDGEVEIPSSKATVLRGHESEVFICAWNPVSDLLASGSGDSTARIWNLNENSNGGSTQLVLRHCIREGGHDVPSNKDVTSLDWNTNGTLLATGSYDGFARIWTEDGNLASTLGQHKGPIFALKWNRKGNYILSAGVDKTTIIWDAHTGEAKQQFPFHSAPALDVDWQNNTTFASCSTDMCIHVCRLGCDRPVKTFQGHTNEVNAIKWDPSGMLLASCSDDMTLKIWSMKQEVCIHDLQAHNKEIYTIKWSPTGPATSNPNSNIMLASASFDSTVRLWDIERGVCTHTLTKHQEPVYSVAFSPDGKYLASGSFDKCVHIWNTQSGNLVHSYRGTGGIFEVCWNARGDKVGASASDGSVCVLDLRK", "conditions": "background statement, no method given; cited from earlier work"}, "[5]": {"conditions": "≤25 pM, 48 hrs, DD180, PF180, CT38 cells"}, "[6]": {"conditions": "Tegavivint alone (no bleomycin)"}, "[7]": {"conditions": "Topical Tegavivint alone (no bleomycin)"}, "[8]": {"conditions": "Aerosol jet nebulizer (Sater Labs), 1 day (single-dose on Day 5)"}, "[9]": {"conditions": "Aerosol jet nebulizer (Sater Labs), 5 day (5 daily doses on Days 1-5)"}, "[10]": {"conditions": "Nebulizer ultrasonic eRapid (Altera), 1 day (single-dose on Day 5)"}, "[11]": {"conditions": "Nebulizer ultrasonic eRapid (Altera), 5 day (5 daily doses on Days 1-5)"}}, "note": "Values joined by “and” are separate entries in the source; they are usually repeats but may differ in a detail not shown here. Equal entries are not always repeated.", "data": [{"substance": "Tegavivint", "values": [{"measurement": "effects on the expression of genes that associate with nuclear β-catenin", "setting": "[1]; cells treated with ≥25 pM", "value": "No discernible effects"}, {"measurement": "effects on gene expression", "setting": "[1]; ≤25 pM", "value": "did not identify any consistent effects"}, {"measurement": "CTNNB1 expression", "setting": "[1]; [5]", "value": "no evidence of a compensatory increase"}, {"measurement": "EGR1 expression levels", "setting": "[1]; [5]", "value": "did not see any evidence of BC-2059-induced changes"}, {"measurement": "NRG1 expression levels", "setting": "[1]; [5]", "value": "did not see any evidence of BC-2059-induced changes"}, {"measurement": "WISP1 expression levels", "setting": "[1]; [5]", "value": "did not see any evidence of BC-2059-induced changes"}, {"measurement": "effects on contractility", "setting": "DD180 cells", "value": "did not identify any consistent effects"}, {"measurement": "pulmonary compliance", "setting": "[2]; Tegavivint after bleomycin", "value": "partially restored"}, {"measurement": "total soluble collagen content in lung tissue (Sircol assay)", "setting": "[2]; Tegavivint after bleomycin", "value": "completely restored the collagen level to the same as vehicle-only controls"}, {"measurement": "pulmonary compliance", "setting": "[2]; [6]", "value": "no effect"}, {"measurement": "total soluble collagen content in lung tissue (Sircol assay)", "setting": "[2]; [6]", "value": "no effect"}, {"measurement": "pulmonary compliance", "setting": "[3]; Tegavivint after bleomycin, compared to bleomycin only", "value": "showed a trend towards increased compliance"}, {"measurement": "soluble collagen content", "setting": "[3]; Tegavivint after bleomycin, compared with bleomycin-only", "value": "significantly decreased the collagen level"}, {"measurement": "pulmonary compliance", "setting": "[3]; [7]", "value": "caused an increase in compliance"}, {"measurement": "soluble collagen content", "setting": "[3]; [7]", "value": "showed a slight increase in collagen"}, {"measurement": "Lung Concentration (ng/g)", "setting": "[4]; [8]", "value": "5040 ng/g and 16800 ng/g and 56800 ng/g and 5200 ng/g and 17100 ng/g"}, {"measurement": "Lung Concentration (ng/mL)", "setting": "[4]; [8]", "value": "1260 ng/mL and 4190 ng/mL and 14200 ng/mL and 1300 ng/mL and 4270 ng/mL"}, {"measurement": "Lung Concentration (ng/g)", "setting": "[4]; [9]", "value": "18600 ng/g and 6600 ng/g and 14500 ng/g and 12300 ng/g and 14200 ng/g"}, {"measurement": "Lung Concentration (ng/mL)", "setting": "[4]; [9]", "value": "4640 ng/mL and 1650 ng/mL and 3620 ng/mL and 3080 ng/mL and 3550 ng/mL"}, {"measurement": "Lung Concentration (ng/g)", "setting": "[4]; [10]", "value": "11400 ng/g and 11600 ng/g and 34600 ng/g and 15100 ng/g and 2400 ng/g"}, {"measurement": "Lung Concentration (ng/mL)", "setting": "[4]; [10]", "value": "2840 ng/mL and 2910 ng/mL and 8660 ng/mL and 3780 ng/mL and 601 ng/mL"}, {"measurement": "Lung Concentration (ng/g)", "setting": "[4]; [11]", "value": "19100 ng/g and 17200 ng/g and 18800 ng/g and 12200 ng/g and 22900 ng/g"}, {"measurement": "Lung Concentration (ng/mL)", "setting": "[4]; [11]", "value": "4770 ng/mL and 4290 ng/mL and 4690 ng/mL and 3040 ng/mL and 5730 ng/mL"}, {"measurement": "interaction with TBL1", "setting": "TBL1", "value": "interact with TBL1"}]}]}
